Assay results from ChEMBL document CHEMBL3813656, “Allosteric Glutaminase Inhibitors Based on a 1,4-Di(5-amino-1,3,4-thiadiazol-2-yl)butane Scaffold” (ACS Med Chem Lett, 2016).
In brackets after ≈: the same amount, converted by molar mass. Activity calls are given as the source filed them. The rule behind the calls is not given here.

Experiments:
[1] = target: T1, Glutaminase kidney isoform, mitochondrial (Homo sapiens, UniProt O94925); test: Inhibition of human kidney type glutaminase (124 to 669 residues) using L-[3H]-glutamine as substrate after 45 mins by topcount method
T1 sequence (O94925 whole entry): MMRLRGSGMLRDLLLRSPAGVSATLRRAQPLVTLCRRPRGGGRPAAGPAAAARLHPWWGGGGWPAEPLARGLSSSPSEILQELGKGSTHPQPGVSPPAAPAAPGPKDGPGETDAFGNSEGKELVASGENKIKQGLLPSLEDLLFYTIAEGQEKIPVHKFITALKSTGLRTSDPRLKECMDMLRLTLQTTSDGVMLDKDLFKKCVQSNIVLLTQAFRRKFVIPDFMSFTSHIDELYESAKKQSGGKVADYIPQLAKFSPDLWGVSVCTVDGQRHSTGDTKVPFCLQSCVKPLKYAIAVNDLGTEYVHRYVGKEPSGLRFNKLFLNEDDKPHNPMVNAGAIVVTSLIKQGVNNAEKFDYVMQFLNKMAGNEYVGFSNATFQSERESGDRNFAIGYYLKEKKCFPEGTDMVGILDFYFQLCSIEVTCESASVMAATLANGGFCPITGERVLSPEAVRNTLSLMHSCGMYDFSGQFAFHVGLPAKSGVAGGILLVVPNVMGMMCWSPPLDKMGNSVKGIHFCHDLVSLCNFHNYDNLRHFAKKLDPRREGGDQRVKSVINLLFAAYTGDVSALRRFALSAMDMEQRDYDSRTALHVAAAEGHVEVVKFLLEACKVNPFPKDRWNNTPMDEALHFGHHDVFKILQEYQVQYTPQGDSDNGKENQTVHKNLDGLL

[2] = target: T2, Glutaminase kidney isoform, mitochondrial (Homo sapiens) (UniProt O94925)
T2 sequence (whole entry): T1 sequence (O94925 whole entry)
Description: Time-dependent inhibition of human kidney type glutaminase (124 to 669 residues) using L-[3H]-glutamine as substrate by topcount method

[3] = Aqueous solubility of the compound in PBS buffer at pH 7.4 at 37 degC after 24 hrs by LC/MS analysis; assay type: physicochemical; settings: pH 7.4, 24 h

CC(=O)Oc1ccc(CC(=O)Nc2nnc(CCCCc3nnc(NC(=O)Cc4cccnc4)s3)s2)cc1
IC50 [1]: 120 nM

CC(=O)Oc1ccc(CC(=O)Nc2nnc(CCCCc3nnc(NC(=O)Cc4ccc(OC(C)=O)cc4)s3)s2)cc1
IC50 [1]: 1200 nM

O=C(Cc1ccccc1)Nc1nnc(CCCCc2nnc(NC(=O)Cc3ccc(Oc4ccccc4)cc3)s2)s1
IC50 [1]: 380 nM

O=C(Cc1ccc(O)cc1)Nc1nnc(CCCCc2nnc(NC(=O)Cc3cccnc3)s2)s1
IC50 [1]: 140 nM

O=C(Cc1ccc(O)cc1)Nc1nnc(CCCCc2nnc(NC(=O)Cc3ccc(O)cc3)s2)s1
IC50 [1]: 120 nM

O=C(Cc1ccccc1)Nc1nnc(CCCCc2nnc(NC(=O)Cc3ccc(Br)cn3)s2)s1
IC50 [1]: 170 nM

CC(=O)Oc1ccc(CC(=O)Nc2nnc(CCCCc3nnc(NC(=O)Cc4ccccc4)s3)s2)cc1
IC50 [1]: 540 nM

O=C(Cc1ccccc1)Nc1nnc(CCCCc2nnc(NC(=O)Cc3ccc(OCc4ccccc4)cc3)s2)s1
IC50 [1]: > 25000 nM

COC(=O)c1ccc(CC(=O)Nc2nnc(CCCCc3nnc(NC(=O)Cc4ccccc4)s3)s2)cc1
IC50 [1]: 13000 nM

O=C(Cc1ccccc1)Nc1nnc(CCCCc2nnc(NC(=O)Cc3cccnc3)s2)s1
IC50 [1]: 70 nM

COc1ccc(CC(=O)Nc2nnc(CCCCc3nnc(NC(=O)Cc4ccccc4)s3)s2)cc1
IC50 [1]: 210 nM

O=C(Cc1ccc(O)cc1)Nc1nnc(CCCCc2nnc(NC(=O)Cc3cccc(OC(F)(F)F)c3)s2)s1
IC50 [1]: 510 nM

O=C(Cc1ccccc1)Nc1nnc(CCCCc2nnc(NC(=O)Cc3ccc(O)cc3)s2)s1
TDI [2]: inactive
IC50 [1]: 70 nM
solubility [3]: 17 µg/mL (≈ 33.4 µM)

O=C(Cc1ccccc1)Nc1nnc(CCCCc2nnc(NC(=O)Cc3ccccn3)s2)s1
IC50 [1]: 70 nM

CC(C)(C)OC(=O)Nc1ccc(CC(=O)Nc2nnc(CCCCc3nnc(NC(=O)Cc4ccccc4)s3)s2)cc1
IC50 [1]: 450 nM

CN(C)c1ccc(CC(=O)Nc2nnc(CCCCc3nnc(NC(=O)Cc4ccccc4)s3)s2)cc1
IC50 [1]: 3000 nM

O=C(Cc1ccccc1)Nc1nnc(CCCCc2nnc(NC(=O)Cc3ccc(C(=O)O)cc3)s2)s1
IC50 [1]: 110 nM

CC(=O)Oc1ccc(CC(=O)Nc2nnc(CCCCc3nnc(NC(=O)Cc4cccc(OC(F)(F)F)c4)s3)s2)cc1
IC50 [1]: 2000 nM

Nc1ccc(CC(=O)Nc2nnc(CCCCc3nnc(NC(=O)Cc4ccccc4)s3)s2)cc1
IC50 [1]: 2300 nM

O=C(Cc1ccccc1)Nc1nnc(CCCCc2nnc(NC(=O)Cc3cccc(O)c3)s2)s1
IC50 [1]: 120 nM
